# According to patent EP0326329B1, “Quinazoline derivatives useful as insecticides” (Dow AgroSciences LLC, priority 1988, dated 1989):
# Test system: Southern corn rootworm (Diabrotica undecimpuctata howardi Barber)
# Assay: Mite/insect screen, soil treatment (CRW)
# Assay type: in vivo
# Settings: Diabrotica; percent mortality; soil treatment, CRW rate 12.00 ppm; read-out: CRW RESULTS %
# How it was run: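 Five 2–3 instar larvae were placed on dry sandy soil with a presoaked corn seed after the soil had received 1 mL of compound solution and dried 6–12 h; cups were kept capped at 23°C. Mortality (%) and phytotoxicity were read after standard exposure. Formulation: acetone/alcohol with emulsifiers, water-diluted.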
row,Compound,mortality at 12 ppm [%]
1,"CC(C)c1cccc(C(C)C)c1OCCOc1ncnc2ccccc12 [Example 181, 4-[2-[2,6-bis(i-propyl)phenoxy]ethoxy]quinazoline]",0
2,"CC(COc1ncnc2ccccc12)c1cccc(Oc2ccccc2)c1 (centres unmarked) [Example 182, 4-[2-(3-phenoxyphenyl)propoxy]quinazoline]",0
3,"N#Cc1ccc(CCOc2ncnc3ccccc23)cc1 [Example 183, 4-[2-[(4-quinazolinyl)oxy]ethyl]benzonitrile]",0
4,"CC(C)(C)c1ccc(CCOc2ncnc3c(Cl)cccc23)cc1 [Example 185, 8-chloro-4-[2-[4-(t-butyl)phenyl]ethoxy]quinazoline]",0
5,"CC(COc1ncnc2ccccc12)c1ccc(-c2ccccc2)cc1 (centres unmarked) [Example 187, 4-[2-(1,1'-biphenyl)-4-ylpropoxy]quinazoline]",0

# Same assay, conditions: Diabrotica; percent mortality; soil treatment, CRW rate 24.00 ppm; read-out: CRW RESULTS %
row,Compound,mortality at 24 ppm [%]
1,"CC(C)c1cccc(C(C)C)c1OCCOc1ncnc2ccccc12 [Example 181, 4-[2-[2,6-bis(i-propyl)phenoxy]ethoxy]quinazoline]",0
2,"CC(COc1ncnc2ccccc12)c1cccc(Oc2ccccc2)c1 (centres unmarked) [Example 182, 4-[2-(3-phenoxyphenyl)propoxy]quinazoline]",0
3,"N#Cc1ccc(CCOc2ncnc3ccccc23)cc1 [Example 183, 4-[2-[(4-quinazolinyl)oxy]ethyl]benzonitrile]",80
4,"CC(C)(C)c1ccc(CCOc2ncnc3c(Cl)cccc23)cc1 [Example 185, 8-chloro-4-[2-[4-(t-butyl)phenyl]ethoxy]quinazoline]",0
5,"CC(COc1ncnc2ccccc12)c1ccc(-c2ccccc2)cc1 (centres unmarked) [Example 187, 4-[2-(1,1'-biphenyl)-4-ylpropoxy]quinazoline]",0

# Test system: melon aphids (Aphis gossypii Glover)
# Assay: Mite/insect screen, sprayed squash cotyledons (MA)
# Assay type: in vivo
# Settings: Aphis gossypii, percent mortality; spray rate 200 ppm; read-out: MA RESULTS %
# How it was run: (§1)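 Mortality and phytotoxicity read after standard exposure periods on sprayed squash: cotyledons for melon aphids and twospotted spider mites, excised leaves placed with southern armyworm larvae. Spray solutions were water dilutions of acetone/alcohol stocks containing TOXIMUL R and S emulsifiers, applied to runoff at 10 psi and air-dried one hour.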
row,Compound,mortality at 200 ppm [%]
1,"CC(C)c1cccc(C(C)C)c1OCCOc1ncnc2ccccc12 [Example 181, 4-[2-[2,6-bis(i-propyl)phenoxy]ethoxy]quinazoline]",60
2,"CC(COc1ncnc2ccccc12)c1cccc(Oc2ccccc2)c1 (centres unmarked) [Example 182, 4-[2-(3-phenoxyphenyl)propoxy]quinazoline]",80
3,"N#Cc1ccc(CCOc2ncnc3ccccc23)cc1 [Example 183, 4-[2-[(4-quinazolinyl)oxy]ethyl]benzonitrile]",0
4,"CC(C)(C)c1ccc(CCOc2ncnc3c(Cl)cccc23)cc1 [Example 185, 8-chloro-4-[2-[4-(t-butyl)phenyl]ethoxy]quinazoline]",50
5,"CC(COc1ncnc2ccccc12)c1ccc(-c2ccccc2)cc1 (centres unmarked) [Example 187, 4-[2-(1,1'-biphenyl)-4-ylpropoxy]quinazoline]",0

# Same assay, conditions: Aphis gossypii, percent mortality; spray rate 400 ppm; read-out: MA RESULTS %
row,Compound,mortality at 400 ppm [%]
1,"CC(C)c1cccc(C(C)C)c1OCCOc1ncnc2ccccc12 [Example 181, 4-[2-[2,6-bis(i-propyl)phenoxy]ethoxy]quinazoline]",50
2,"CC(COc1ncnc2ccccc12)c1cccc(Oc2ccccc2)c1 (centres unmarked) [Example 182, 4-[2-(3-phenoxyphenyl)propoxy]quinazoline]",100
3,"N#Cc1ccc(CCOc2ncnc3ccccc23)cc1 [Example 183, 4-[2-[(4-quinazolinyl)oxy]ethyl]benzonitrile]",0
4,"CC(C)(C)c1ccc(CCOc2ncnc3c(Cl)cccc23)cc1 [Example 185, 8-chloro-4-[2-[4-(t-butyl)phenyl]ethoxy]quinazoline]",30
5,"CC(COc1ncnc2ccccc12)c1ccc(-c2ccccc2)cc1 (centres unmarked) [Example 187, 4-[2-(1,1'-biphenyl)-4-ylpropoxy]quinazoline]",0

# Test system: Erysiphe graminis tritici (powdery mildew)
# Assay: Greenhouse Test 1, foliar spray fungicide screen (POWD MDEW), host wheat
# Assay type: in vivo
# Settings: disease control rating, 400 ppm (+++ at 100 ppm)
row,Compound,POWD MDEW
1,"CC(C)c1cccc(C(C)C)c1OCCOc1ncnc2ccccc12 [Example 181, 4-[2-[2,6-bis(i-propyl)phenoxy]ethoxy]quinazoline]",++ (++ = 90-100% control at 400 ppm)
2,"CC(COc1ncnc2ccccc12)c1cccc(Oc2ccccc2)c1 (centres unmarked) [Example 182, 4-[2-(3-phenoxyphenyl)propoxy]quinazoline]",++ (++ = 90-100% control at 400 ppm)
3,"N#Cc1ccc(CCOc2ncnc3ccccc23)cc1 [Example 183, 4-[2-[(4-quinazolinyl)oxy]ethyl]benzonitrile]",+ (+ = 20-89% control at 400 ppm)
4,"CC(C)(C)c1ccc(CCOc2ncnc3c(Cl)cccc23)cc1 [Example 185, 8-chloro-4-[2-[4-(t-butyl)phenyl]ethoxy]quinazoline]",+ (+ = 20-89% control at 400 ppm)
5,"CC(COc1ncnc2ccccc12)c1ccc(-c2ccccc2)cc1 (centres unmarked) [Example 187, 4-[2-(1,1'-biphenyl)-4-ylpropoxy]quinazoline]",- (- = 0-19% control at 400 ppm)

# Test system: Botrytis cinerea (gray mold)
# Assay: Greenhouse Test 1, foliar spray fungicide screen (GRAY MOLD), host grape berries
# Assay type: in vivo
# Settings: disease control rating, 400 ppm (+++ at 100 ppm)
row,Compound,GRAY MOLD
1,"CC(C)c1cccc(C(C)C)c1OCCOc1ncnc2ccccc12 [Example 181, 4-[2-[2,6-bis(i-propyl)phenoxy]ethoxy]quinazoline]",- (- = 0-19% control at 400 ppm)
2,"CC(COc1ncnc2ccccc12)c1cccc(Oc2ccccc2)c1 (centres unmarked) [Example 182, 4-[2-(3-phenoxyphenyl)propoxy]quinazoline]",- (- = 0-19% control at 400 ppm)
3,"N#Cc1ccc(CCOc2ncnc3ccccc23)cc1 [Example 183, 4-[2-[(4-quinazolinyl)oxy]ethyl]benzonitrile]",- (- = 0-19% control at 400 ppm)
4,"CC(C)(C)c1ccc(CCOc2ncnc3c(Cl)cccc23)cc1 [Example 185, 8-chloro-4-[2-[4-(t-butyl)phenyl]ethoxy]quinazoline]",- (- = 0-19% control at 400 ppm)
5,"CC(COc1ncnc2ccccc12)c1ccc(-c2ccccc2)cc1 (centres unmarked) [Example 187, 4-[2-(1,1'-biphenyl)-4-ylpropoxy]quinazoline]",- (- = 0-19% control at 400 ppm)

# Test system: Puccinia recondita tritici (leaf rust)
# Assay: Greenhouse Test 1, foliar spray fungicide screen (LEAF RUST), host wheat
# Assay type: in vivo
# Settings: disease control rating, 400 ppm (+++ at 100 ppm)
row,Compound,LEAF RUST
1,"CC(C)c1cccc(C(C)C)c1OCCOc1ncnc2ccccc12 [Example 181, 4-[2-[2,6-bis(i-propyl)phenoxy]ethoxy]quinazoline]",- (- = 0-19% control at 400 ppm)
2,"CC(COc1ncnc2ccccc12)c1cccc(Oc2ccccc2)c1 (centres unmarked) [Example 182, 4-[2-(3-phenoxyphenyl)propoxy]quinazoline]",++ (++ = 90-100% control at 400 ppm)
3,"N#Cc1ccc(CCOc2ncnc3ccccc23)cc1 [Example 183, 4-[2-[(4-quinazolinyl)oxy]ethyl]benzonitrile]",+++ (+++ = 90-100% control at 100 ppm)
4,"CC(C)(C)c1ccc(CCOc2ncnc3c(Cl)cccc23)cc1 [Example 185, 8-chloro-4-[2-[4-(t-butyl)phenyl]ethoxy]quinazoline]",+ (+ = 20-89% control at 400 ppm)
5,"CC(COc1ncnc2ccccc12)c1ccc(-c2ccccc2)cc1 (centres unmarked) [Example 187, 4-[2-(1,1'-biphenyl)-4-ylpropoxy]quinazoline]",+ (+ = 20-89% control at 400 ppm)

# Test system: Twospotted spider mites (Tetranychus urticae Koch)
# Assay: Mite/insect screen, sprayed squash cotyledons (SM)
# Assay type: in vivo
# Settings: Tetranychus urticae, percent mortality; spray rate 200 ppm; read-out: SM RESULTS %
# How it was run: as §1
row,Compound,mortality at 200 ppm [%]
1,"CC(C)c1cccc(C(C)C)c1OCCOc1ncnc2ccccc12 [Example 181, 4-[2-[2,6-bis(i-propyl)phenoxy]ethoxy]quinazoline]",0
2,"CC(COc1ncnc2ccccc12)c1cccc(Oc2ccccc2)c1 (centres unmarked) [Example 182, 4-[2-(3-phenoxyphenyl)propoxy]quinazoline]",0
3,"N#Cc1ccc(CCOc2ncnc3ccccc23)cc1 [Example 183, 4-[2-[(4-quinazolinyl)oxy]ethyl]benzonitrile]",0
4,"CC(C)(C)c1ccc(CCOc2ncnc3c(Cl)cccc23)cc1 [Example 185, 8-chloro-4-[2-[4-(t-butyl)phenyl]ethoxy]quinazoline]",80
5,"CC(COc1ncnc2ccccc12)c1ccc(-c2ccccc2)cc1 (centres unmarked) [Example 187, 4-[2-(1,1'-biphenyl)-4-ylpropoxy]quinazoline]",0

# Same assay, conditions: Tetranychus urticae, percent mortality; spray rate 400 ppm; read-out: SM RESULTS %
row,Compound,mortality at 400 ppm [%]
1,"CC(C)c1cccc(C(C)C)c1OCCOc1ncnc2ccccc12 [Example 181, 4-[2-[2,6-bis(i-propyl)phenoxy]ethoxy]quinazoline]",40
2,"CC(COc1ncnc2ccccc12)c1cccc(Oc2ccccc2)c1 (centres unmarked) [Example 182, 4-[2-(3-phenoxyphenyl)propoxy]quinazoline]",80
3,"N#Cc1ccc(CCOc2ncnc3ccccc23)cc1 [Example 183, 4-[2-[(4-quinazolinyl)oxy]ethyl]benzonitrile]",0
4,"CC(C)(C)c1ccc(CCOc2ncnc3c(Cl)cccc23)cc1 [Example 185, 8-chloro-4-[2-[4-(t-butyl)phenyl]ethoxy]quinazoline]",30
5,"CC(COc1ncnc2ccccc12)c1ccc(-c2ccccc2)cc1 (centres unmarked) [Example 187, 4-[2-(1,1'-biphenyl)-4-ylpropoxy]quinazoline]",0

# Test system: Pseudoperonospora cubensis (downy mildew)
# Assay: Greenhouse Test 1, foliar spray fungicide screen (DOWN MDEW), host squash
# Assay type: in vivo
# Settings: disease control rating, 400 ppm (+++ at 100 ppm)
row,Compound,DOWN MDEW
1,"CC(C)c1cccc(C(C)C)c1OCCOc1ncnc2ccccc12 [Example 181, 4-[2-[2,6-bis(i-propyl)phenoxy]ethoxy]quinazoline]",+ (+ = 20-89% control at 400 ppm)
2,"CC(COc1ncnc2ccccc12)c1cccc(Oc2ccccc2)c1 (centres unmarked) [Example 182, 4-[2-(3-phenoxyphenyl)propoxy]quinazoline]",- (- = 0-19% control at 400 ppm)
3,"N#Cc1ccc(CCOc2ncnc3ccccc23)cc1 [Example 183, 4-[2-[(4-quinazolinyl)oxy]ethyl]benzonitrile]",+ (+ = 20-89% control at 400 ppm)
4,"CC(C)(C)c1ccc(CCOc2ncnc3c(Cl)cccc23)cc1 [Example 185, 8-chloro-4-[2-[4-(t-butyl)phenyl]ethoxy]quinazoline]",++ (++ = 90-100% control at 400 ppm)
5,"CC(COc1ncnc2ccccc12)c1ccc(-c2ccccc2)cc1 (centres unmarked) [Example 187, 4-[2-(1,1'-biphenyl)-4-ylpropoxy]quinazoline]",+ (+ = 20-89% control at 400 ppm)

# Test system: Pyricularia oryzae (rice blast)
# Assay: not given
# Assay type: in vivo
# Settings: disease control rating, foliar spray, host rice; 400 ppm (+++ at 100 ppm)
row,Compound,RICE BLAST
1,"CC(C)c1cccc(C(C)C)c1OCCOc1ncnc2ccccc12 [Example 181, 4-[2-[2,6-bis(i-propyl)phenoxy]ethoxy]quinazoline]",+ (+ = 20-89% control at 400 ppm)
2,"CC(COc1ncnc2ccccc12)c1cccc(Oc2ccccc2)c1 (centres unmarked) [Example 182, 4-[2-(3-phenoxyphenyl)propoxy]quinazoline]",- (- = 0-19% control at 400 ppm)
3,"N#Cc1ccc(CCOc2ncnc3ccccc23)cc1 [Example 183, 4-[2-[(4-quinazolinyl)oxy]ethyl]benzonitrile]",++ (++ = 90-100% control at 400 ppm)
4,"CC(C)(C)c1ccc(CCOc2ncnc3c(Cl)cccc23)cc1 [Example 185, 8-chloro-4-[2-[4-(t-butyl)phenyl]ethoxy]quinazoline]",++ (++ = 90-100% control at 400 ppm)
5,"CC(COc1ncnc2ccccc12)c1ccc(-c2ccccc2)cc1 (centres unmarked) [Example 187, 4-[2-(1,1'-biphenyl)-4-ylpropoxy]quinazoline]",+++ (+++ = 90-100% control at 100 ppm)

# Test system: southern armyworm (Spodopetra eridania Cramer)
# Assay: Mite/insect screen, sprayed squash leaves (SAW)
# Assay type: in vivo
# Settings: Spodoptera eridania, percent mortality; spray rate 200 ppm; read-out: SAW RESULTS %
# How it was run: as §1
row,Compound,mortality at 200 ppm [%]
1,"CC(C)c1cccc(C(C)C)c1OCCOc1ncnc2ccccc12 [Example 181, 4-[2-[2,6-bis(i-propyl)phenoxy]ethoxy]quinazoline]",0
2,"CC(COc1ncnc2ccccc12)c1cccc(Oc2ccccc2)c1 (centres unmarked) [Example 182, 4-[2-(3-phenoxyphenyl)propoxy]quinazoline]",0
3,"N#Cc1ccc(CCOc2ncnc3ccccc23)cc1 [Example 183, 4-[2-[(4-quinazolinyl)oxy]ethyl]benzonitrile]",0
4,"CC(C)(C)c1ccc(CCOc2ncnc3c(Cl)cccc23)cc1 [Example 185, 8-chloro-4-[2-[4-(t-butyl)phenyl]ethoxy]quinazoline]",0
5,"CC(COc1ncnc2ccccc12)c1ccc(-c2ccccc2)cc1 (centres unmarked) [Example 187, 4-[2-(1,1'-biphenyl)-4-ylpropoxy]quinazoline]",0

# Same assay, conditions: Spodoptera eridania, percent mortality; spray rate 400 ppm; read-out: SAW RESULTS %
row,Compound,mortality at 400 ppm [%]
1,"CC(C)c1cccc(C(C)C)c1OCCOc1ncnc2ccccc12 [Example 181, 4-[2-[2,6-bis(i-propyl)phenoxy]ethoxy]quinazoline]",0
2,"CC(COc1ncnc2ccccc12)c1cccc(Oc2ccccc2)c1 (centres unmarked) [Example 182, 4-[2-(3-phenoxyphenyl)propoxy]quinazoline]",0
3,"N#Cc1ccc(CCOc2ncnc3ccccc23)cc1 [Example 183, 4-[2-[(4-quinazolinyl)oxy]ethyl]benzonitrile]",0
4,"CC(C)(C)c1ccc(CCOc2ncnc3c(Cl)cccc23)cc1 [Example 185, 8-chloro-4-[2-[4-(t-butyl)phenyl]ethoxy]quinazoline]",0
5,"CC(COc1ncnc2ccccc12)c1ccc(-c2ccccc2)cc1 (centres unmarked) [Example 187, 4-[2-(1,1'-biphenyl)-4-ylpropoxy]quinazoline]",0
